Reference: article PMC10257043 (Molecular Plant Pathology, 2023)

T1: Uvi2 (Ustilago hordei, UniProt I2G262)
T1 sequence (I2G262 22-243): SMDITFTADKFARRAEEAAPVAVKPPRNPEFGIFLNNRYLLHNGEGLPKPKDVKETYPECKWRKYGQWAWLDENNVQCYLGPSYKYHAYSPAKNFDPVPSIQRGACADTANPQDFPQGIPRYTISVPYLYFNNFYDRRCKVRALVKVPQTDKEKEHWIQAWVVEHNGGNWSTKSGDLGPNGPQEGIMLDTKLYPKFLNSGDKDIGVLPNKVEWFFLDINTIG


How the values were obtained:
Uvi2 = target: T1, Uvi2; assay: microscale thermophoresis; type: binding; settings: MST as for Cpl1
SEC-MALS = target: the molecule itself; assay: SEC-MALS

Row | Kd (Uvi2) | Molecule | stoichiometry N (SEC-MALS)
1 | 15 ± 3.72 µM | CC(=O)N[C@H]1[C@H](O[C@H]2[C@H](O)[C@@H](NC(C)=O)C(O)O[C@@H]2CO)O[C@H](CO)[C@@H](O)[C@@H]1O (some centres unmarked) [chitobiose] | –
2 | – | Uvi2 (UHOR_02700 gene product), the Cpl1 homologue from Ustilago hordei, recombinant (natural protein) SMDITFTADKFARRAEEAAPVAVKPPRNPEFGIFLNNRYLLHNGEGLPKPKDVKETYPECKWRKYGQWAWLDENNVQCYLGPSYKYHAYSPAKNFDPVPSIQRGACADTANPQDFPQGIPRYTISVPYLYFNNFYDRRCKVRALVKVPQTDKEKEHWIQAWVVEHNGGNWSTKSGDLGPNGPQEGIMLDTKLYPKFLNSGDKDIGVLPNKVEWFFLDINTIG | 2
